Laboratory results published in US8084479B2, “Thiazole compounds and methods of use” (Amgen Inc., priority 2006, dated 2011).

These molecules were tested against PKBα (Homo sapiens, UniProt P31749) (assay: PKB kinase assay (P33-labeled ATP, peptide substrate, filter plate)). Details: PKBα enzyme (full length or kinase domain with pleckstrin domain deleted).
Assay type: biochemical
Description: The kinase assay for evaluating PKB activity comprises active PKB enzymes, a PKB specific substrate, and P^33-labeled ATP. […] The phosphorylated substrate was captured by a phosphocellulose membrane filter plate (MLLIPORE) and measured by a Wallac Microbeta liquid scintillation counter (Perkin Elmer).

Sequence of PKBα (P31749 118-480 limits assumed): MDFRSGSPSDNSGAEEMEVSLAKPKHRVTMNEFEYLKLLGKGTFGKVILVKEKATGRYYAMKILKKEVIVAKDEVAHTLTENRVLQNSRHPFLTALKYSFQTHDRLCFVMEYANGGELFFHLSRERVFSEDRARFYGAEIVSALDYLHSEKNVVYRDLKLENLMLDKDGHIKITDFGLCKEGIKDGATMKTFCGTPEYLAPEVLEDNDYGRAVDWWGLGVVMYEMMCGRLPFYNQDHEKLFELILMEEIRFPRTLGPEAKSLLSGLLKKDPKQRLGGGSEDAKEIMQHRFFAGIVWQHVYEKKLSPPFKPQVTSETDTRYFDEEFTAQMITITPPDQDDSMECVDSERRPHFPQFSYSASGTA

IC50 [nM] | Compound
< 50 | COCc1nc(NC[C@@H](N)Cc2ccc(C(F)(F)F)cc2)sc1-c1nc2ccncc2s1 [Example 22, N—((S)-2-amino-3-(4-(trifluoromethyl)phenyl)propyl)-4-(methoxymethyl)-5-(thiazolo[5,4-c]pyridin-2-yl)thiazol-2-amine]
50 to 1000 | N[C@H](CNc1nc(-c2ccccc2F)c(-c2ccc3cnccc3c2)s1)Cc1ccc(F)cc1 [Example 106, N—((S)-2-Amino-3-(4-fluorophenyl)propyl)-4-(2-fluorophenyl)-5-(isoquinolin-6-yl)thiazol-2-amine]
50 to 1000 | NC(CNc1ncc(-c2ccc3c(c2)CC(=O)N3)s1)Cc1ccc(O)c(F)c1 (centres unmarked) [Example 217, 5-(2-(2-Amino-3-(3-fluoro-4-hydroxyphenyl)propylamino)thiazol-5-yl)indolin-2-one]
50 to 1000 | Nc1noc2ccc(-c3cnc(NC[C@@H](N)Cc4ccc(C(F)(F)F)cc4)s3)cc12 [Example 51, 5-(2-((S)-2-amino-3-(4-(trifluoromethyl)phenyl)propylamino)thiazol-5-yl)benzo[d]isoxazol-3-amine]
50 to 1000 | N[C@@H](CNc1ncc(-c2ccc3[nH]c(=O)oc3c2)s1)Cc1ccc(C(F)(F)F)c(F)c1 [Example 182, 6-(2-((R)-2-amino-3-(3-fluoro-4-(trifluoromethyl)phenyl)propylamino)thiazol-5-yl)benzo[d]oxazol-2(3H)-one]
1000 to 10000 | C[C@@H](c1ccccc1)[C@H](N)CNc1ncc(-c2ccc3[nH]c(=O)n(C)c3c2)s1 [Example 89, 6-(2-((2S,3S)-2-Amino-3-phenylbutylamino)thiazol-5-yl)-1-methyl-1H-benzo[d]imidazol-2(3H)-one]
< 50 | N[C@H](CNc1ncc(-c2ccc3c(c2)CC(=O)N3)s1)Cc1ccc(C(F)(F)F)nc1 [Example 171, 5-(2-((S)-2-amino-3-(6-(trifluoromethyl)pyridine-3-yl)propylamino)thiazol-5-yl)indolin-2-one]
50 to 1000 | N[C@H](CNc1nc(CCO)c(-c2ccc3cnccc3c2)s1)Cc1ccc(C(F)(F)F)cc1 [Example 255, 2-(2-((S)-2-amino-3-(4-(trifluoromethyl)phenyl)propylamino)-5-(isoquinolin-6-yl)thiazol-4-yl)ethanol]
1000 to 10000 | N[C@H](CNc1nc(C(F)(F)CO)c(-c2ccc3[nH]c(=O)oc3c2)s1)Cc1ccc(C(F)(F)F)cc1 [Example 135, 6-(2-((S)-2-Amino-3-(4-(trifluoromethyl)phenyl)-propylamino)-4-(1,1-difluoro-2-hydroxyethyl)thiazol-5-yl)benzo[d]oxazol-2(3H)-one]
< 50 | CC#Cc1nc(NC[C@@H](N)Cc2ccc(C(F)(F)F)cc2)sc1-c1ccc2[nH]nc(C)c2c1 [Example 153, N—((S)-2-amino-3-(4-(trifluoromethyl)phenyl)propyl)-5-(3-methyl-1H-indazol-5-yl)-4-(prop-1-ynyl)thiazol-2-amine]
1000 to 10000 | N[C@H](CNc1ncc(-c2nc3ccncc3s2)s1)Cc1cccc(C(F)(F)F)c1 [Example 31, N—((S)-2-amino-3-(3-(trifluoromethyl)phenyl)propyl)-5-(thiazolo[5,4-c]pyridin-2-yl)thiazol-2-amine]
50 to 1000 | N[C@H](CNc1nc(-c2ccc(F)cc2)c(-c2ccc3cnccc3c2)s1)Cc1ccc(C(F)(F)F)cc1 [Example 102, N—((S)-2-Amino-3-(4-(trifluoromethyl)phenyl)propyl)-4-(4-fluorophenyl)-5-(isoquinolin-6-yl)thiazol-2-amine]
50 to 1000 | NC(CNc1ncc(-c2ccc3[nH]c(=O)oc3c2)s1)Cc1ccc(O)c(F)c1 (centres unmarked) [Example 216, 6-(2-(2-Amino-3-(3-fluoro-4-hydroxyphenyl)propylamino)thiazol-5-yl)benzo[d]oxazol-2(3H)-one]
1000 to 10000 | N[C@H](CNc1ncc(-c2ccc3c(c2)CC(=O)N3)s1)Cc1cc(F)cc(F)c1 [Example 163, 5-(2-((S)-2-amino-3-(3,5-difluorophenyl)propylamino)thiazol-5-yl)indolin-2-one]
1000 to 10000 | CC(=O)N[C@H](CNc1ncc(-c2ccc3c(c2)CC(=O)N3)s1)Cc1ccc(C(F)(F)F)cc1 [Example 128, N—((S)-1-(5-(2-Oxoindolin-5-yl)thiazol-2-ylamino)-3-(4-(trifluoro-methyl)phenyl)propan-2-yl)acetamide]
< 50 | N[C@H](CNc1ncc(-c2cc(F)c3c(c2)CC(=O)N3)s1)Cc1ccc(C(F)(F)F)cc1 [Example 220, 5-(2-((S)-2-amino-3-(4-(trifluoromethyl)phenyl)propylamino)thiazol-5-yl)-7-fluoroindolin-2-one]
50 to 1000 | N[C@H](CNc1ncc(-c2ccc3c(c2)CC(=O)N3)s1)Cc1ccc(C(F)(F)F)c(O)c1 [Example 209, 5-(2-((S)-2-amino-3-(3-hydroxy-4-(trifluoromethyl)phenyl)propylamino)thiazol-5-yl)indolin-2-one]
< 50 | N[C@H](CNc1ncc(-c2ccc3cnccc3c2)s1)Cc1ccc(C(F)(F)F)c(F)c1 [Example 83, N—((S)-2-Amino-3-(3-fluoro-4-(trifluoromethyl)phenyl)propyl)-5-(isoquinolin-6-yl)thiazol-2-amine]

IC50 [nM] | Compound
1000 to 10000 | COCc1nc(N(C[C@@H](N)Cc2ccc(C(F)(F)F)cc2)C(C)=O)sc1-c1nc2ccncc2s1 [Example 26, N—((S)-2-amino-3-(4-(trifluoromethyl)phenyl)propyl)-N-(4-(methoxymethyl)-5-(thiazolo[5,4-c]pyridin-2-yl)thiazol-2-yl)acetamide]
< 50 | N[C@H](CNc1ncc(-c2ccc3[nH]c(=O)oc3c2)s1)Cc1ccc(Cl)c(Cl)c1 [Example 115, 6-(2-((S)-2-Amino-3-(3,4-dichlorophenyl)propylamino)thiazol-5-yl)benzo[d]oxazol-2(3H)-one]
< 50 | COCc1nc(NC[C@@H](N)Cc2ccc(C(F)(F)F)cc2)sc1-c1ccc2c(c1)CC(=O)N2 [Example 69, 5-(2-((S)-2-amino-3-(4-(trifluoromethyl)phenyl)propylamino)-4-(methoxymethyl)thiazol-5-yl)indolin-2-one]
1000 to 10000 | N[C@H](CNc1ncc(-c2ccc3c(c2)CC(=O)N3)s1)Cc1ccc(OCCCO)cc1 [Example 95, 5-(2-((S)-2-Amino-3-(4-(3-hydroxypropoxy)phenyl)propylamino)-thiazol-5-yl)indolin-2-one]
< 50 | C/C=C/[C@@H](c1ccc(C(F)(F)F)cc1)[C@H](N)CNc1ncc(-c2ccc3c(c2)CC(=O)N3)s1 [Example 155, 5-(2-((2S,3S,E)-2-amino-3-(4-(trifluoromethyl)phenyl)hex-4-enylamino)thiazol-5-yl)indolin-2-one]
< 50 | N[C@H](CNc1nc(C#CCO)c(-c2ccc3cnccc3c2)s1)Cc1ccc(C(F)(F)F)cc1 [Example 140, 3-(2-((S)-2-amino-3-(4-(trifluoromethyl)phenyl)propylamino)-5-(isoquinolin-6-yl)thiazol-4-yl)prop-2-yn-1-ol]
50 to 1000 | COCc1nc(NC[C@@H](N)Cc2ccc(C(F)(F)F)cc2)sc1-c1ccc2[nH]nc(C)c2c1 [Example 15, N—((S)-2-amino-3-(4-(trifluoromethyl)phenyl)propyl)-4-(methoxymethyl)-5-(3-methyl-1H-indazol-5-yl)thiazol-2-amine]
50 to 1000 | CN(C)Cc1nc(NC[C@@H](N)Cc2ccc(C(F)(F)F)cc2)sc1-c1ccc2cnccc2c1 [Example 81, N—((S)-2-Amino-3-(4-(trifluoromethyl)phenyl)propyl)-4-((dimethylamino)methyl)-5-(isoquinolin-6-yl)thiazol-2-amine]
1000 to 10000 | N[C@H](CNc1ncc(-c2ccc3c(c2)OCO3)s1)Cc1c[nH]c2ccccc12 [Example 251, N—((S)-2-amino-3-(1H-indol-3-yl)propyl)-5-(benzo[d][1,3]dioxol-5-yl)thiazol-2-amine]
50 to 1000 | COCC#Cc1nc(NC[C@@H](N)Cc2ccc(C(F)(F)F)cc2)sc1-c1ccc2cnccc2c1 [Example 146, N—((S)-2-amino-3-(4-(trifluoromethyl)phenyl)propyl)-5-(isoquinolin-6-yl)-4-(3-methoxyprop-1-ynyl)thiazol-2-amine]
50 to 1000 | Nc1n[nH]c2ccc(-c3cnc(NC[C@@H](N)Cc4ccc(C(F)(F)F)cc4)s3)cc12 [Example 50, 5-(2-((S)-2-amino-3-(4-(trifluoromethyl)phenyl)propylamino)thiazol-5-yl)-1H-indazol-3-amine]
50 to 1000 | CC(=O)OC[C@@H](c1ccc(C(F)(F)F)cc1)[C@H](N)CNc1ncc(-c2ccc3c(c2)CC(=O)N3)s1 [Example 248, (2S,3S)-3-amino-4-(5-(2-oxoindolin-5-yl)thiazol-2-ylamino)-2-(4-(trifluoromethyl)phenyl)butyl acetate]
< 50 | NC(CNc1ncc(-c2ccc3cnccc3c2)s1)Cc1ccc(OC(F)(F)F)cc1 (centres unmarked) [Example 189, N-(-2-amino-3-(4-(trifluoromethoxy)phenyl)propyl)-5-(isoquinolin-6-yl)thiazol-2-amine]
50 to 1000 | C[C@@H](c1ccc(C(F)(F)F)cc1)[C@H](N)CNc1ncc(-c2ccc3c(c2)C2(CC2)C(=O)N3)s1 [Example 200, 5′-(2-((2S,3S)-2-amino-3-(4-(trifluoromethyl)phenyl)butylamino)thiazol-5-yl)spiro[cyclopropane-1,3′-indol]-2′(1′H)-one]
1000 to 10000 | Cc1nc(NC[C@@H](N)Cc2ccccc2)sc1-c1ccc2[nH]nc(C)c2c1 [Example 7, N—((S)-2-amino-3-phenylpropyl)-4-methyl-5-(3-methyl-1H-indazol-5-yl)thiazol-2-amine]
1000 to 10000 | N[C@H](CNc1ncc(-c2ccc3cn[nH]c(=O)c3c2)s1)Cc1ccc(C(F)(F)F)cc1 [Example 252, 7-(2-((S)-2-amino-3-(4-(trifluoromethyl)phenyl)propylamino)thiazol-5-yl)phthalazin-1 (211)-one]
50 to 1000 | Cc1n[nH]c2ccc(-c3cnc(NC[C@@H](N)Cc4ccccc4)s3)cc12 [Example 1, N—((S)-2-amino-3-phenylpropyl)-5-(3-methyl-1H-indazol-5-yl)thiazol-2-amine]
